From patent US9051307B2, “Bipyridyl derivatives” (Merck Patent GmbH, priority 2010, dated 2015)

Each compound was assayed against T1, GST-ALK5 (Homo sapiens, UniProt P36897) (assay: In-vitro (enzyme) kinase assay, 384-well flashplate, GST-ALK5 with GST-SMAD2 and 33P-ATP (Example 16)). Conditions: 31.2 nM GST-ALK5, 439 nM GST-SMAD2, 3 mM ATP, 30° C., 45 min; IC50 classes; read-out: TβR activity (Example 16).
T1 sequence (P36897 34-503): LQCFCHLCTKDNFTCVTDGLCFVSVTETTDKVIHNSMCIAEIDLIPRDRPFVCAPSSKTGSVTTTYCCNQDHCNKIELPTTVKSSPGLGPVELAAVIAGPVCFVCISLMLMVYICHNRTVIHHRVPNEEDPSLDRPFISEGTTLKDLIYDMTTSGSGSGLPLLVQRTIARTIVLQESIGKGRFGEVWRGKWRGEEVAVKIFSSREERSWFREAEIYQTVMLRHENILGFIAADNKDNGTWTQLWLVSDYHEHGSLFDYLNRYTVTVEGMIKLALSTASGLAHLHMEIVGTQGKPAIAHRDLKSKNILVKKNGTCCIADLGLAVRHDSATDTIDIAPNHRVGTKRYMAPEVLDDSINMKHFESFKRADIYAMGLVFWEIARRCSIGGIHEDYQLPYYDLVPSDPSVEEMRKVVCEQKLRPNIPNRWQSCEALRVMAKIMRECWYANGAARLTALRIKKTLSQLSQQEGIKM
Format: biochemical
Experimental: In-vitro (Enzyme) Assay for Determination of the Efficacy of Inhibitors of the Inhibition of TGF-Beta-mediated Effects
The kinase assay was carried out as 384-well flashplate assay. 31.2 nM of GST-ALK5, 439 nM of GST-SMAD2 and 3 mM of ATP (with 0.3 μCi of ^33P-ATP/well) were incubated in a total volume of 35 μl (20 mM of HEPES, 10 mM of MgCl2, 5 mM of MnCl2, 1 mM of DTT, 0.1% of BSA, pH 7.4) without or with test substance (5-10 concentrations) at 30° C. for 45 min. The reaction was stopped using 25 μl of 200 mM EDTA solution, filtered with suction at room temperature after 30 min, and the wells were washed with 3 times 100 μl of 0.9% NaCl solution. Radioactivity was measured in the TopCount. The IC50 values were calculated using RS1.

Q: Which IC50 does the source give for `Fc1ccc(Cl)cc1-c1cc(-c2cncc(-c3cnn(C4CCNCC4)c3)c2)ccn1` [Compound 18, 2′-(5-Chloro-2-fluoro-phenyl)-5-(1-piperidin-4-yl-1H-pyrazol-4-yl)-[3,4′]bipyridinyl] here?
A: The IC50 was < 1000 nM.

Q: `OCCn1cc(-c2cncc(-c3ccnc(-c4ccccc4F)c3)n2)cn1` [Compound 20, 2-(4-{6-[2-(2-Fluoro-phenyl)-pyridin-4-yl]-pyrazin-2-yl}-pyrazol-1-yl)-ethanol] was tested. Which IC50 did it give?
A: The IC50 was < 1000 nM.

Q: `Fc1ccccc1-c1cc(-c2cncc(-c3cnn(CCCN4CCOCC4)c3)c2)ccn1` [Compound 21, 2′-(2-Fluoro-phenyl)-5-[1-(3-morpholin-4-yl-propyl)-1H-pyrazol-4-yl]-[3,4′]bipyridinyl] was tested. Which IC50 did it give?
A: The IC50 was < 1000 nM.

Q: Which IC50 does the source give for `OCCCn1cc(-c2cncc(-c3ccnc(-c4ccccc4F)c3)c2)cn1` [Compound 22, 3-{4-[2′-(2-Fluoro-phenyl)-[3,4′]bipyridinyl-5-yl]-pyrazol-1-yl}-propan-1-ol] here?
A: Its IC50 is < 1000 nM.

Q: Which IC50 does the source give for `CN1CCN(CCCn2cc(-c3cncc(-c4ccnc(-c5ccccc5F)c4)c3)cn2)CC1` [Compound 23, 2′-(2-Fluoro-phenyl)-5-{1-[3-(4-methyl-piperazin-1-yl)-propyl]-1H-pyrazol-4-yl}-[3,4′]bipyridinyl] here?
A: Its IC50 is < 1000 nM.

Q: How did the IC50 turn out when `CN1CCC(n2cc(-c3cncc(-c4ccnc(-c5ccccc5F)c4)c3)cn2)CC1` [Compound 24, 2′-(2-Fluoro-phenyl)-5-[1-(1-methyl-piperidin-4-yl)-1H-pyrazol-4-yl]-[3,4′]bipyridinyl] was run?
A: The IC50 was < 1000 nM.

Q: Which IC50 does the source give for `CN1CCN(c2ccc(-c3cncc(-c4ccnc(-c5ccccc5F)c4)c3)cn2)CC1` [Compound 25, 2″-(2-Fluoro-phenyl)-6-(4-methyl-piperazin-1-yl)-[3,3′;5′,4″]terpyridine] here?
A: Its IC50 is < 1000 nM.

Q: Which IC50 does the source give for `Fc1ccccc1-c1cc(-c2cncc(-c3ccc(N4CCNCC4)nc3)c2)ccn1` [Compound 26, 2″-(2-Fluoro-phenyl)-6-piperazin-1-yl-[3,3′;5′,4″]terpyridine] here?
A: Its IC50 is < 1000 nM.

Q: `Fc1ccccc1-c1cc(-c2cncc(-c3cnn(C4CCNCC4)c3)c2)ccn1` [Compound 27, 2′-(2-Fluoro-phenyl)-5-(1-piperidin-4-yl-1H-pyrazol-4-yl)-[3,4′]bipyridinyl] was tested. Which IC50 did it give?
A: Its IC50 is < 1000 nM.

Q: How did the IC50 turn out when `CN(C)CCCn1cc(-c2cncc(-c3ccnc(-c4cc(F)ccc4F)c3)c2)cn1` [Compound 28, (3-{4-[2′-(2,5-Difluoro-phenyl)-[3,4′]bipyridinyl-5-yl]-pyrazol-1-yl}-propyl)-dimethyl-amine] was run?
A: The IC50 was < 1000 nM.

Q: Which IC50 does the source give for `CN(C)CCCn1cc(-c2cncc(-c3ccnc(-c4ccccc4F)c3)c2)cn1` [Compound 29, (3-{4-[2′-(2-Fluoro-phenyl)-[3,4′]bipyridinyl-5-yl]-pyrazol-1-yl}-propyl)-dimethyl-amine] here?
A: The IC50 was < 1000 nM.

Q: Which IC50 does the source give for `CN(C)CCCn1cc(-c2cncc(-c3ccnc(-c4cc(Cl)ccc4F)c3)c2)cn1` [Compound 30, (3-{4-[2′-(5-Chloro-2-fluoro-phenyl)-[3,4′]bipyridinyl-5-yl]-pyrazol-1-yl}-propyl)-dimethyl-amine] here?
A: Its IC50 is < 1000 nM.

Q: For `OCCn1cc(-c2cncc(-c3ccnc(-c4cc(C(F)(F)F)ccc4F)c3)c2)cn1` [Compound 31, 2-{4-[2′-(2-Fluoro-5-trifluoromethyl-phenyl)-[3,4′]bipyridinyl-5-yl]-pyrazol-1-yl}-ethanol], which IC50 is on record?
A: The IC50 was < 1000 nM.

Q: With `OCCn1cc(-c2cncc(-c3ccnc(-c4cc(F)ccc4F)c3)c2)cn1` [Compound 32, 2-{4-[2′-(2,5-Difluoro-phenyl)-[3,4′]bipyridinyl-5-yl]-pyrazol-1-yl}-ethanol] as the compound, how does the IC50 read?
A: The IC50 was < 1000 nM.

Q: `OCCn1cc(-c2cncc(-c3ccnc(-c4ccccc4F)c3)c2)cn1` [Compound 33, 2-{4-[2′-(2-Fluoro-phenyl)-[3,4′]bipyridinyl-5-yl]-pyrazol-1-yl}-ethanol] was tested. Which IC50 did it give?
A: The IC50 was < 1000 nM.

Q: How did the IC50 turn out when `OCCn1cc(-c2cncc(-c3ccnc(-c4cc(Cl)ccc4F)c3)c2)cn1` [Compound 34, 2-{4-[2′-(5-Chloro-2-fluoro-phenyl)-[3,4′]bipyridinyl-5-yl]-pyrazol-1-yl}-ethanol] was run?
A: Its IC50 is < 1000 nM.

Q: Which IC50 does the source give for `CN1CCC(n2cc(-c3cncc(-c4ccnc(-c5cc(F)ccc5F)c4)c3)cn2)CC1` [Compound 35, 2′-(2,5-Difluoro-phenyl)-5-[1-(1-methyl-piperidin-4-yl)-1H-pyrazol-4-yl]-[3,4′]bipyridinyl] here?
A: Its IC50 is < 1000 nM.

Q: For `CN1CCC(n2cc(-c3cncc(-c4ccnc(-c5cc(C(F)(F)F)ccc5F)c4)c3)cn2)CC1` [Compound 36, 2′-(2-Fluoro-5-trifluoromethyl-phenyl)-5-[1-(1-methyl-piperidin-4-yl)-1H-pyrazol-4-yl]-[3,4′]bipyridinyl], which IC50 is on record?
A: The IC50 was < 1000 nM.

Q: For `CN1CCC(n2cc(-c3cncc(-c4ccnc(-c5cc(Cl)ccc5F)c4)c3)cn2)CC1` [Compound 37, 2′-(5-Chloro-2-fluoro-phenyl)-5-[1-(1-methyl-piperidin-4-yl)-1H-pyrazol-4-yl]-[3,4′]bipyridinyl], which IC50 is on record?
A: Its IC50 is < 1000 nM.

Q: `Fc1ccccc1-c1cc(-c2cncc(-c3cnc4ccccc4c3)c2)ccn1` [Compound 39, 2′-(2-Fluoro-phenyl)-5-quinolin-3-yl-[3,4′]bipyridinyl] was tested. Which IC50 did it give?
A: Its IC50 is 1000 to 10000 nM.

Q: For `Fc1ccccc1-c1cc(-c2cncc(-n3cccn3)c2)ccn1` [Compound 41, 2′-(2-Fluoro-phenyl)-5-pyrazol-1-yl-[3,4′]bipyridinyl], which IC50 is on record?
A: The IC50 was < 1000 nM.

Q: Which IC50 does the source give for `Fc1ccccc1-c1cc(-c2cncc(-c3cnc4[nH]c(C(F)(F)F)cc4c3)c2)ccn1` [Compound 42, 2′-(2-Fluoro-phenyl)-5-(2-trifluoromethyl-1H-pyrrolo[2,3-b]pyridin-5-yl)-[3,4′]bipyridinyl] here?
A: Its IC50 is 1000 to 10000 nM.

Q: With `CCOc1cc(Nc2cncc(-c3ccnc(-c4ccccc4F)c3)c2)ccn1` [Compound 43, (2-Ethoxy-pyridin-4-yl)-[2′-(2-fluoro-phenyl)-[3,4′]bipyridinyl-5-yl]-amine] as the compound, how does the IC50 read?
A: The IC50 was 1000 to 10000 nM.

Q: For `COc1ccc(Nc2cncc(-c3ccnc(-c4ccccc4F)c3)c2)cn1` [Compound 44, [2′-(2-Fluoro-phenyl)-[3,4′]bipyridinyl-5-yl]-(6-methoxy-pyridin-3-yl)-amine], which IC50 is on record?
A: Its IC50 is 1000 to 10000 nM.

Q: With `CCOCc1cnc(C)nc1Nc1cncc(-c2ccnc(-c3ccccc3F)c2)c1` [Compound 45, (5-Ethoxymethyl-2-methyl-pyrimidin-4-yl)-[2′-(2-fluoro-phenyl)-[3,4′]bipyridinyl-5-yl]-amine] as the compound, how does the IC50 read?
A: Its IC50 is 1000 to 10000 nM.
